Assay results: patent publication US10273222B2 (CELGENE QUANTICEL RESEARCH, INC., priority 2013, dated 2019)
pIC50: −log10 of the molar value.

What was measured:
[1] = molecular target: JMJD2C (Homo sapiens (Human), UniProt Q9H3R0); assay: JMJD2C in vitro enzyme inhibition assay (TR-FRET); format: biochemical
[2] = molecular target: FBXL10 (Homo sapiens (Human), UniProt Q8NHM5); assay: FBXL10 in vitro enzyme inhibition assay (AlphaScreen); format: biochemical
Experimental: Reaction product was determined quantitatively by AlphaScreen detection after the addition of detection reagents anti-H3K36me1 antibody, AlphaScreen® Streptavidin-coated Donor beads, and AlphaScreen® Protein A Acceptor beads in 50 mM HEPES, pH7.3, 10 mM NaCl, 0.005% Brij35, 5 mM EDTA, 2 mg/ml BSA to final 10 μg/ml beads.
Plates were incubated at room temperature for 40 minutes, followed by addition of 3 μl of 50 μg/ml AlphaScreen® Streptavidin-coated Donor beads and AlphaScreen® Protein A Acceptor beads in 50 mM HEPES, pH7.3, 10 mM NaCl, 0.005% Brij35, 5 mM EDTA, 2 mg/ml BSA. Plates were read by EnVisionMultilabel Reader in AlphaScreen mode after a minimum of 2 hour or up to overnight incubation at room temperature. The AlphaScreen signal for each well was used to determine inhibition constant (IC50).

Sequence of JMJD2C (Q9H3R0 2-372): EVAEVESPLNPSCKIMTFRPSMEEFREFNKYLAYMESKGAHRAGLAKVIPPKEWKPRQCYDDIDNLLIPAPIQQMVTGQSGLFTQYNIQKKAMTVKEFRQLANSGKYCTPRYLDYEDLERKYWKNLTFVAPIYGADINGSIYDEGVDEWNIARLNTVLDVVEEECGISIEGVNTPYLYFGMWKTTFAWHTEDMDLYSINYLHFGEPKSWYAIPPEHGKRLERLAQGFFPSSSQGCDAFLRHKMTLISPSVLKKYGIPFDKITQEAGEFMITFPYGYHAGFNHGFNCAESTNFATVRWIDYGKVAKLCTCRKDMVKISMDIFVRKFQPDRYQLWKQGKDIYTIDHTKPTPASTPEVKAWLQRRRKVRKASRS
Sequence of FBXL10 (Q8NHM5 1-650): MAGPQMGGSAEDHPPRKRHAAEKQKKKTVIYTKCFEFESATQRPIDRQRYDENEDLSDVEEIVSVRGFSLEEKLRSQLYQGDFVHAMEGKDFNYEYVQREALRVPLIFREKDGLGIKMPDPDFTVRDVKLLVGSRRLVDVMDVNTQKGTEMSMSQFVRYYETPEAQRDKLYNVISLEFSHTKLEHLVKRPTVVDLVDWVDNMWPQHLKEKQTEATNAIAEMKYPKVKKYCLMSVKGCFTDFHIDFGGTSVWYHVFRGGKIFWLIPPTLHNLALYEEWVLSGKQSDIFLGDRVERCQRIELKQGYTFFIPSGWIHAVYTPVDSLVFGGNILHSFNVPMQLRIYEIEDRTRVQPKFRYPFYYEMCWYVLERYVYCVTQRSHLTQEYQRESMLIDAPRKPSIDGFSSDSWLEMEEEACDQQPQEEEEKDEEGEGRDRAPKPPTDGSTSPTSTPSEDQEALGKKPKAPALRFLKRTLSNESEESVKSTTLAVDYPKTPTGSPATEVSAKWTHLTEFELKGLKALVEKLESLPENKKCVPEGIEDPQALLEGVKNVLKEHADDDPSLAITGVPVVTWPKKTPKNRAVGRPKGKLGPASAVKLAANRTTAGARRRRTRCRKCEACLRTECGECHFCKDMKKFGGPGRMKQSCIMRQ

Structure (SMILES) | pIC50 [1] | pIC50 [2]
Cn1cnc(-c2cc(-c3nn[nH]n3)ccn2)c1-c1ccc(F)c(C(=O)NCc2ccccc2)c1 [Example 65, N-benzyl-2-fluoro-5-[3-methyl-5-[4-(2H-tetrazol-5-yl)pyridin-2-yl]imidazol-4-yl]benzamide] | 5.00 to 6.00 | ≥ 7.00
O=C(O)c1ccnc(-c2cn(Cc3cccc(C(F)(F)F)c3)cn2)c1 [Example 117, 2-[1-[[3-(trifluoromethyl)phenyl]methyl]imidazol-4-yl]pyridine-4-carboxylic acid] | 6.00 to 7.00 | ≥ 7.00
Cn1cnc(-c2cc(C(=O)O)ccn2)c1-c1cc(F)c(F)cc1OCC1CC1 [Example 121, 2-[5-[2-(cyclopropylmethoxy)-4,5-difluorophenyl]-1-methylimidazol-4-yl]pyridine-4-carboxylic acid] | 5.00 to 6.00 | ≥ 7.00
Cn1cnc(-c2cc(C(=O)O)ccn2)c1-c1c(F)cccc1OCC1CC1 [Example 122, 2-[5-[2-(cyclopropylmethoxy)-6-fluorophenyl]-1-methylimidazol-4-yl]pyridine-4-carboxylic acid] | 5.00 to 6.00 | ≥ 7.00
Cc1ccc(OCC2CC2)c(-c2c(-c3cc(C(=O)O)ccn3)ncn2C)c1 [Example 123, 2-[5-[2-(cyclopropylmethoxy)-5-methylphenyl]-1-methylimidazol-4-yl]pyridine-4-carboxylic acid] | 5.00 to 6.00 | 6.00 to 7.00
O=C(O)c1ccnc(-c2ncn(CCc3ccccc3Cl)c2-c2ccc(F)cc2)c1 [Example 124, 2-[1-[2-(2-chlorophenyl)ethyl]-5-(4-fluorophenyl)imidazol-4-yl]pyridine-4-carboxylic acid] | 6.00 to 7.00 | ≥ 7.00
O=C(O)c1ccnc(-c2ncn(CC3CC3)c2-c2ccc(F)cc2)c1 [Example 125, 2-[1-(cyclopropylmethyl)-5-(4-fluorophenyl)imidazol-4-yl]pyridine-4-carboxylic acid] | 6.00 to 7.00 | ≥ 7.00
O=C(O)c1ccnc(-c2ncn(CC3CC3)c2-c2ccc(Cl)cc2)c1 [Example 126, 2-[5-(4-chlorophenyl)-1-(cyclopropylmethyl)imidazol-4-yl]pyridine-4-carboxylic acid] | 5.00 to 6.00 | ≥ 7.00
O=C(O)c1ccnc(-c2ncn(Cc3ccccc3Cl)c2-c2ccc(F)cc2)c1 [Example 127, 2-[1-[(2-chlorophenyl)methyl]-5-(4-fluorophenyl)imidazol-4-yl]pyridine-4-carboxylic acid] | 5.00 to 6.00 | ≥ 7.00
CCOc1ccccc1CCn1cnc(-c2cc(-c3nn[nH]n3)ccn2)c1 [Example 128, 2-[1-[2-(2-ethoxyphenyl)ethyl]imidazol-4-yl]-4-(2H-tetrazol-5-yl)pyridine] | 5.00 to 6.00 | ≥ 7.00
Clc1cccc(Cn2cnc(-c3cc(-c4nn[nH]n4)ccn3)c2)c1 [Example 130, 2-[1-[(3-chlorophenyl)methyl]imidazol-4-yl]-4-(2H-tetrazol-5-yl)pyridine] | 5.00 to 6.00 | ≥ 7.00
Clc1ccc(Cn2cnc(-c3cc(-c4nn[nH]n4)ccn3)c2)cc1 [Example 131, 2-[1-[(4-chlorophenyl)methyl]imidazol-4-yl]-4-(2H-tetrazol-5-yl)pyridine] | 5.00 to 6.00 | ≥ 7.00
Fc1ccc(-c2c(-c3cc(-c4nn[nH]n4)ccn3)ncn2CCc2ccccc2Cl)cc1 [Example 132, 2-[1-[2-(2-chlorophenyl)ethyl]-5-(4-fluorophenyl)imidazol-4-yl]-4-(2H-tetrazol-5-yl)pyridine] | 5.00 to 6.00 | ≥ 7.00
Clc1ccc(-c2c(-c3cc(-c4nn[nH]n4)ccn3)ncn2CCc2ccccc2Cl)cc1 [Example 133, 2-[5-(4-chlorophenyl)-1-[2-(2-chlorophenyl)ethyl]imidazol-4-yl]-4-(2H-tetrazol-5-yl)pyridine] | 5.00 to 6.00 | 6.00 to 7.00
Fc1ccc(-c2c(-c3cc(-c4nn[nH]n4)ccn3)ncn2CC(F)(F)F)cc1 [Example 134, 2-[5-(4-fluorophenyl)-1-(2,2,2-trifluoroethyl)imidazol-4-yl]-4-(2H-tetrazol-5-yl)pyridine] | 5.00 to 6.00 | ≥ 7.00
Fc1ccc(-c2c(-c3cc(-c4nn[nH]n4)ccn3)ncn2CC2CC2)cc1 [Example 135, 2-[1-(cyclopropylmethyl)-5-(4-fluorophenyl)imidazol-4-yl]-4-(2H-tetrazol-5-yl)pyridine] | 5.00 to 6.00 | ≥ 7.00
Clc1ccc(-c2c(-c3cc(-c4nn[nH]n4)ccn3)ncn2CC2CC2)cc1 [Example 136, 2-[5-(4-chlorophenyl)-1-(cyclopropylmethyl)imidazol-4-yl]-4-(2H-tetrazol-5-yl)pyridine] | 5.00 to 6.00 | ≥ 7.00

Structure (SMILES) | pIC50 [1] | pIC50 [2]
Fc1ccc(-c2c(-c3cc(-c4nn[nH]n4)ccn3)ncn2Cc2ccccc2Cl)cc1 [Example 137, 2-[1-[(2-chlorophenyl)methyl]-5-(4-fluorophenyl)imidazol-4-yl]-4-(2H-tetrazol-5-yl)pyridine] | 5.00 to 6.00 | ≥ 7.00
CC(=O)OCn1nnc(-c2ccnc(-c3ncn(Cc4ccccc4Cl)c3-c3ccc(F)cc3)c2)n1 [Example 138, [5-[2-[1-[(2-chlorophenyl)methyl]-5-(4-fluorophenyl)imidazol-4-yl]pyridin-4-yl]tetrazol-2-yl]methyl acetate] | 5.00 to 6.00 | 5.00 to 6.00
CC(C)(C)C(=O)OCn1nnc(-c2ccnc(-c3ncn(Cc4ccccc4Cl)c3-c3ccc(F)cc3)c2)n1 [Example 139, [5-[2-[1-[(2-chlorophenyl)methyl]-5-(4-fluorophenyl)imidazol-4-yl]pyridin-4-yl]tetrazol-2-yl]methyl 2,2-dimethylpropanoate] | 5.00 to 6.00 | 5.00 to 6.00
c1ccc2c(c1)CCC(Cn1cnc(-c3cc(-c4nn[nH]n4)ccn3)c1)C2 (stereo not shown) [Example 146, 2-[1-(1,2,3,4-tetrahydronaphthalen-2-ylmethyl)imidazol-4-yl]-4-(2H-tetrazol-5-yl)pyridine] | 5.00 to 6.00 | ≥ 7.00
c1ccc2c(c1)CC(Cn1cnc(-c3cc(-c4nn[nH]n4)ccn3)c1)C2 [Example 147, 2-[1-(2,3-dihydro-1H-inden-2-ylmethyl)imidazol-4-yl]-4-(2H-tetrazol-5-yl)pyridine] | 5.00 to 6.00 | ≥ 7.00
Cn1cnc(-c2cc(-c3nn[nH]n3)ccn2)c1-c1ccc(F)cc1OCc1ccccc1 [Example 148, 2-[5-(4-fluoro-2-phenylmethoxyphenyl)-1-methylimidazol-4-yl]-4-(2H-tetrazol-5-yl)pyridine] | 5.00 to 6.00 | ≥ 7.00
CCCCOc1cc(F)ccc1-c1c(-c2cc(-c3nn[nH]n3)ccn2)ncn1C [Example 149, 2-[5-(2-butoxy-4-fluorophenyl)-1-methylimidazol-4-yl]-4-(2H-tetrazol-5-yl)pyridine] | 5.00 to 6.00 | ≥ 7.00
Clc1cccc(Cl)c1Cn1cnc(-c2cc(-c3nn[nH]n3)ccn2)c1 [Example 151, 2-[1-[(2,6-dichlorophenyl)methyl]imidazol-4-yl]-4-(2H-tetrazol-5-yl)pyridine] | 5.00 to 6.00 | ≥ 7.00
FC(F)(F)COc1ccccc1Cn1cnc(-c2cc(-c3nn[nH]n3)ccn2)c1 [Example 152, 4-(2H-tetrazol-5-yl)-2-[1-[[2-(2,2,2-trifluoroethoxy)phenyl]methyl]imidazol-4-yl]pyridine] | 5.00 to 6.00 | ≥ 7.00
CC(C)COc1ccccc1Cn1cnc(-c2cc(-c3nn[nH]n3)ccn2)c1 [Example 153, 2-[1-[[2-(2-methylpropoxy)phenyl]methyl]imidazol-4-yl]-4-(2H-tetrazol-5-yl)pyridine] | 5.00 to 6.00 | 6.00 to 7.00
c1ccc2c(Cn3cnc(-c4cc(-c5nn[nH]n5)ccn4)c3)cccc2c1 [Example 155, 2-[1-(naphthalen-1-ylmethyl)imidazol-4-yl]-4-(2H-tetrazol-5-yl)pyridine] | 5.00 to 6.00 | ≥ 7.00
FC(F)(F)Oc1ccccc1Cn1cnc(-c2cc(-c3nn[nH]n3)ccn2)c1 [Example 156, 4-(2H-tetrazol-5-yl)-2-[1-[[2-(trifluoromethoxy)phenyl]methyl]imidazol-4-yl]pyridine] | 5.00 to 6.00 | ≥ 7.00
CC(c1ccccc1Cl)n1cnc(-c2cc(-c3nn[nH]n3)ccn2)c1 (stereo not shown) [Example 157, 2-[1-[1-(2-chlorophenyl)ethyl]imidazol-4-yl]-4-(2H-tetrazol-5-yl)pyridine] | 5.00 to 6.00 | ≥ 7.00
Clc1cccc(Cn2cnc(-c3cc(-c4nn[nH]n4)ccn3)c2)c1Cl [Example 158, 2-[1-[(2,3-dichlorophenyl)methyl]imidazol-4-yl]-4-(2H-tetrazol-5-yl)pyridine] | 5.00 to 6.00 | ≥ 7.00
Cn1cnc(-c2cc(-c3nn[nH]n3)ccn2)c1-c1ccc(F)c(OCC(F)(F)F)c1 [Example 159, 2-[5-[4-fluoro-3-(2,2,2-trifluoroethoxy)phenyl]-1-methylimidazol-4-yl]-4-(2H-tetrazol-5-yl)pyridine] | 5.00 to 6.00 | 6.00 to 7.00
Cn1cnc(-c2cc(-c3nn[nH]n3)ccn2)c1-c1ccc(F)c(OCc2ccccc2)c1 [Example 160, 2-[5-(4-fluoro-3-phenylmethoxyphenyl)-1-methylimidazol-4-yl]-4-(2H-tetrazol-5-yl)pyridine] | 5.00 to 6.00 | ≥ 7.00
Cn1cnc(-c2cc(-c3nn[nH]n3)ccn2)c1-c1ccc(Cl)c(OCc2ccccc2)c1 [Example 161, 2-[5-(4-chloro-3-phenylmethoxyphenyl)-1-methylimidazol-4-yl]-4-(2H-tetrazol-5-yl)pyridi] | – | ≥ 7.00
